We go through 17 compounds from patent US20230365563A1, “QUINAZOLINE COMPOUND AND APPLICATION THEREOF” (SHANGHAI PHARMACEUTICALS HOLDING CO., LTD., priority 2020, published 2023).

Counter-ions that a name gives are not always drawn.

For one test, the target named is T1, KRAS-G12D and SOS1 (Homo sapiens, UniProt P01116, G12D).
T1 construct: purchased
Nature of the test: Inhibition of KRAS-G12D/SOS1 binding (Cisbio binding kit, 665/615 ratio), Effect Embodiment A. Particulars: read-out: GTP-KRAS-G12D:SOS1 IC50. An outline of the steps: (§1)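 Test compounds were serially diluted 3-fold from the storage solution over 11 points and dispensed in duplicate wells at 1% final DMSO.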

The target in another test is T2, KRAS_G12D and cRAF (Homo sapiens, UniProt P01116, G12D).
T2 construct: purchased
Kind of test: Inhibition of KRAS_G12D/cRAF binding (Cisbio binding kit, 665/615 ratio), Effect Embodiment B. Conditions: read-out: GTP-KRAS-G12D:CRAF IC50. An outline of the steps:
as §1

For the next test, the target named is T3, KRAS_WT and SOS1 (Homo sapiens, UniProt P01116).
T3 construct: purchased
Kind of test: Inhibition of KRAS_WT/SOS1 binding (Cisbio binding kit, 665/615 ratio), Effect Embodiment C. Conditions: read-out: GTP-KRAS-WT:SOS1 IC50. An outline of the steps: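 Compounds tested as 3-fold, 11-point dilutions in duplicate at 1% DMSO final against the KRAS_WT/SOS1 binding system. IC50 derived by nonlinear regression fit.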

T2 sequence (P01116 1-188 isoform P01116-2 G12D): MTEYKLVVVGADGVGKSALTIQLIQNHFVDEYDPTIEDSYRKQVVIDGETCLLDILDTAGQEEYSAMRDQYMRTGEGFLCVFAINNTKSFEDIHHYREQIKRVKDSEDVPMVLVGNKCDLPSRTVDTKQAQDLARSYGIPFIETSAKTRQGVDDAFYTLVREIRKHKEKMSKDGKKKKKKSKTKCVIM
T1 sequence (P01116 1-188 isoform P01116-2 G12D): as above
T3 sequence (P01116 1-188 isoform P01116-2): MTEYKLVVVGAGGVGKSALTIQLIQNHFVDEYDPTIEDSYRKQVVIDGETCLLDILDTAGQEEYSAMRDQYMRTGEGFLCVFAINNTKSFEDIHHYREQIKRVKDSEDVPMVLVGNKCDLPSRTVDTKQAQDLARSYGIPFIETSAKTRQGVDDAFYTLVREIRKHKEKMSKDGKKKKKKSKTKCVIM

Consider `Oc1cc(-c2c(Cl)cc3c(N4CC5CCC(C4)N5)nc(OCC45CCN(CC4)CC5)nc3c2F)c2ccccc2c1` (single isomer, unassigned) [Compound 260, 4-((S or R)-4-((1R,5S)-3,8-diazacyclo[3.2.1]octan-3-yl)-6-chloro-8-fluoro-2-(quinin-4-ylmethoxy)quinazolin-7-yl)naphthalen-2-ol diformate], for which the IC50 was found to be 25.9 nM at KRAS-G12D and SOS1; 157 nM on KRAS_G12D and cRAF; 4420 nM at KRAS_WT and SOS1.

With `Oc1cc(-c2c(Cl)cc3c(N4CC5CCC(C4)N5)nc(OCCCN4CCC5(CCOC5)CC4)nc3c2F)c2ccccc2c1` (single isomer, unassigned) [Compound 261, 4-((S or R)-2-(3-(2-oxa-8-azaspiro[4.5]decan-8-yl)propoxy)-4-((1R,5S)-3,8-diazacyclo[3.2.1]octan-3-yl)-6-chloro-8-fluoroquinazolin-7-yl)naphthalen-2-ol diformate], the 50% inhibitory concentration (IC50) at KRAS-G12D and SOS1 was found to be 18.7 nM; at KRAS_G12D and cRAF, 102 nM; at KRAS_WT and SOS1, 1080 nM.

In the case of `Oc1cc(-c2c(Cl)cc3c(N4CC5CCC(C4)N5)nc(OCCCN4CCC5(CC4)COC5)nc3c2F)c2ccccc2c1` (single isomer, unassigned) [Compound 262, 4-((S or R)-2-(3-(2-oxa-7-azaspiro[3.5]nonan-7-yl)propoxy)-4-((1R,5S)-3,8-diazacyclo[3.2.1]octan-3-yl)-6-chloro-8-fluoroquinazolin-7-yl)naphthalen-2-ol diformate], the IC50 on KRAS-G12D and SOS1 came to 24.3 nM; at KRAS_G12D and cRAF it was 141 nM; on KRAS_WT and SOS1, 1660 nM.

Take `Oc1cc(-c2c(Cl)cc3c(N4CC5CCC(C4)N5)nc(OCCCN4CC5(CCOC5)C4)nc3c2F)c2ccccc2c1` (single isomer, unassigned) [Compound 263, 4-((S or R)-2-(3-(6-oxa-2-azaspiro[3.4]octan-2-yl)propoxy)-4-((1R,5S)-3,8-diazacyclo[3.2.1]octan-3-yl)-6-chloro-8-fluoroquinazolin-7-yl)naphthalen-2-ol formate]: the IC50 was 23.1 nM at KRAS-G12D and SOS1; 118 nM on KRAS_G12D and cRAF; 863 nM at KRAS_WT and SOS1.

Turning to `Oc1cc(-c2c(Cl)cc3c(N4CC5CCC(C4)N5)nc(OCC4CCC5COCCN5C4)nc3c2F)c2ccccc2c1` (single isomer, unassigned) [Compound 264a, 4-((S or R)-4-((1R,5S)-3,8-diazacyclo[3.2.1]octan-3-yl)-6-chloro-8-fluoro-2-((7S or 7R, 9aS or 9aR)-octahydropyridine[2,1-c][1,4]oxazin-7-yl)methoxy)quinazolin-7-yl)naphthalen-2-ol formate], the IC50 on KRAS-G12D and SOS1 was determined as 11.7 nM; on KRAS_G12D and cRAF, 32.1 nM; at KRAS_WT and SOS1 it was 342 nM.

Take `Oc1cc(-c2c(Cl)cc3c(N4CC5CCC(C4)N5)nc(OCC4CCC5COCCN5C4)nc3c2F)c2ccccc2c1` (single isomer, unassigned) [Compound 264b, 4-((R or S)-4-((1R,5S)-3,8-diazacyclo[3.2.1]octan-3-yl)-6-chloro-8-fluoro-2-((7R or 7S, 9aR or 9aS)-octahydropyridine[2,1-c][1,4]oxazin-7-yl)methoxy)quinazolin-7-yl)naphthalen-2-ol formate]: the IC50 at KRAS-G12D and SOS1 was found to be 19.3 nM; at KRAS_G12D and cRAF, 101 nM; at KRAS_WT and SOS1, 196 nM.

With `CC1OCCN(CCCOc2nc(N3CC4CCC(C3)N4)c3cc(Cl)c(-c4cc(O)cc5ccccc45)c(F)c3n2)C1C` (single isomer, unassigned) [Compound 265a, 4-((R or S)-4-((1R,5S)-3,8-diazabicyclo[3.2.1]octan-3-yl)-6-chloro-2-(3-((2R or 2S, 3S or 3R)-2,3-dimethylmorpholinyl)propoxy)-8-fluoroquinazolin-7-yl)naphthalen-2-ol diformate], the concentration for half-maximal inhibition (IC50) at KRAS-G12D and SOS1 came out at 91.2 nM; on KRAS_G12D and cRAF, 286 nM; on KRAS_WT and SOS1, 5830 nM.

`CC1OCCN(CCCOc2nc(N3CC4CCC(C3)N4)c3cc(Cl)c(-c4cc(O)cc5ccccc45)c(F)c3n2)C1C` (single isomer, unassigned) [Compound 265b, 4-((R or S)-4-((1R,5S)-3,8-diazabicyclo[3.2.1]octan-3-yl)-6-chloro-2-(3-((2S or 2R, 3R or 3S)-2,3-dimethylmorpholinyl)propoxy)-8-fluoroquinazolin-7-yl)naphthalen-2-ol diformate]: the IC50 on KRAS-G12D and SOS1 worked out at 59.6 nM; on KRAS_G12D and cRAF, 199 nM; on KRAS_WT and SOS1, 7850 nM.

In the case of `CC1OCCN(CCCOc2nc(N3CC4CCC(C3)N4)c3cc(Cl)c(-c4cc(O)cc5ccccc45)c(F)c3n2)C1C` (single isomer, unassigned) [Compound 265c, 4-((R or S)-4-((1R,5S)-3,8-diazabicyclo[3.2.1]octan-3-yl)-6-chloro-2-(3-((2S or 2R, 3S or 3R)-(2,3-dimethylmorpholinyl)propoxy)-8-fluoroquinazolin-7-yl)naphthalen-2-ol diformate], the IC50 at KRAS-G12D and SOS1 was 49.8 nM; on KRAS_G12D and cRAF it was 135 nM; on KRAS_WT and SOS1, 1280 nM.

As for `CC1OCCN(CCCOc2nc(N3CC4CCC(C3)N4)c3cc(Cl)c(-c4cc(O)cc5ccccc45)c(F)c3n2)C1C` (single isomer, unassigned) [Compound 265d, 4-((R or S)-4-((1R,5S)-3,8-diazabicyclo[3.2.1]octan-3-yl)-6-chloro-2-(3-(2R or 2S, 3R or 3S)-2,3-dimethylmorpholinyl)propoxy)-8-fluoroquinazolin-7-yl)naphthalen-2-ol diformate], the IC50 on KRAS-G12D and SOS1 turned out to be 50 nM; at KRAS_G12D and cRAF it was 184 nM; on KRAS_WT and SOS1, 4900 nM.

For the compound `CO[C@@H](COc1nc(N2CC3CCC(C2)N3)c2cc(Cl)c(-c3cc(O)cc4ccccc34)c(F)c2n1)CN1CCCC[C@H]1C` (single isomer, unassigned) [Compound 266, (R or S)-4-(4-((1R,5S)-3,8-diazacyclo[3.2.1]octan-3-yl)-6-chloro-8-fluoro-2-((R)-2-methoxy-3-((R)-2-methylpiperidin-1-yl)propoxy)quinazolin-7-yl)naphthalen-2-ol diformate], the half-inhibitory concentration (IC50) on KRAS-G12D and SOS1 is 174 nM; at KRAS_G12D and cRAF, 746 nM; on KRAS_WT and SOS1 it was above 10000 nM.

In the case of `Oc1cc(-c2c(Cl)cc3c(N4CC5CCC(C4)N5)nc(OCCN4CCCC(F)C4)nc3c2F)c2ccccc2c1` (single isomer, unassigned) [Compound 267a, 4-((R or S)-4-((1R,5S)-3,8-diazacyclo[3.2.1]octan-3-yl)-6-chloro-8-fluoro-2-(2-((S or R)-3-fluoropiperidin-1-yl)ethoxy)quinazolin-7-yl)naphthalen-2-ol formate], the half-maximal inhibitory concentration (IC50) at KRAS-G12D and SOS1 was found to be 76.7 nM; on KRAS_G12D and cRAF, 259 nM; at KRAS_WT and SOS1, 6340 nM.

Regarding `Oc1cc(-c2c(Cl)cc3c(N4CC5CCC(C4)N5)nc(OCCN4CCCC(F)C4)nc3c2F)c2ccccc2c1` (single isomer, unassigned) [Compound 267b, 4-((R or S)-4-((1R,5S)-3,8-diazacyclo[3.2.1]octan-3-yl)-6-chloro-8-fluoro-2-(2-((R or S)-3-fluoropiperidin-1-yl)ethoxy)quinazolin-7-yl)naphthalen-2-ol formate], the IC50 on KRAS-G12D and SOS1 amounted to 118 nM; at KRAS_G12D and cRAF, 278 nM; on KRAS_WT and SOS1 it was 4600 nM.

For `C[C@H]1CCCCN1CCOc1nc(N2CC3CCC(C2)N3)c2cc(Cl)c(-c3cc(O)cc4ccccc34)c(F)c2n1` (single isomer, unassigned) [Compound 268, (R or S)-4-(4-((1R,5S)-3,8-diazacyclo[3.2.1]octan-3-yl)-6-chloro-8-fluoro-2-(2-((S)-2-methylpiperidin-1-yl)ethoxy)quinazolin-7-yl)naphthalen-2-ol diformate], the concentration for half-maximal inhibition (IC50) is 52.4 nM on KRAS-G12D and SOS1; 346 nM on KRAS_G12D and cRAF; 3610 nM on KRAS_WT and SOS1.

As to `C[C@@H]1CCCCN1CCOc1nc(N2CC3CCC(C2)N3)c2cc(Cl)c(-c3cc(O)cc4ccccc34)c(F)c2n1` (single isomer, unassigned) [Compound 269, (S or R)-4-(4-((1R,5S)-3,8-diazacyclo[3.2.1]octan-3-yl)-6-chloro-8-fluoro-2-(2-((R)-2-methylpiperidin-1-yl)ethoxy)quinazolin-7-yl)naphthalen-2-ol formate], the IC50 is 67.9 nM on KRAS-G12D and SOS1; 339 nM at KRAS_G12D and cRAF; 1760 nM on KRAS_WT and SOS1.

Take `Oc1cc(-c2c(Cl)cc3c(N4CC5CCC(C4)N5)nc(OCCCN4CCC5(CCOC5)C4)nc3c2F)c2ccccc2c1` (single isomer, unassigned) [Compound 270, (4R or 4S)-4-(2-(3-(2-oxo-7-azaspiro[4.4]nonan-7-yl)propoxy)-4-(1R,5S)-3,8-diazacyclo[3.2.1]octan-3-yl)-6-chloro-8-fluoroquinazolin-7-yl)naphthalen-2-ol diformate]: the half-inhibitory concentration (IC50) at KRAS-G12D and SOS1 worked out at 43.1 nM; at KRAS_G12D and cRAF, 202 nM; on KRAS_WT and SOS1, 1210 nM.

Consider `CCc1cccc2cc(O)cc(-c3c(F)cc4c(N5CC6CCC(C5)N6)nc(OCCCN5C6CCC5COC6)nc4c3F)c12` (single isomer, unassigned) [Compound 271a, 4-((7S or 7R)-2-(3-(3-oxa-8-azabicyclo[3.2.1]octan-8-yl)propoxy)-4-((1R,5S)-3,8-diazabicyclo[3.2.1]octan-3-yl)-6,8-difluoroquinazolin-7-yl)-5-ethylnaphthalen-2-ol diformate], for which the IC50 at KRAS-G12D and SOS1 was 9.86 nM; on KRAS_G12D and cRAF, 11.4 nM; at KRAS_WT and SOS1, 179 nM.

Broadly, the IC50 is the concentration needed to halve the response being measured.
